Results taken from US8080252B2, “Compounds and methods of modulating angiogenesis” (The Cleveland Clinic Foundation, priority 2006, dated 2011).
Where two headings read alike, the source gives them in different places. Non-standard residues stand in square brackets, D forms with d. No end group written: not given here. pY = N[C@@H](Cc1ccc(OP(=O)(O)O)cc1)C(=O)O

Tests used:
β3 integrin = β3 integrin tyrosine phosphorylation (Tyr-747 and 759) in HUVECs, Western blot; type: cell-based, Human; details: serum starved HUVECs, 400 nm and 800 nm SU1498
Experimental: αvβ3 integrin is expressed on proliferating endothelial cells during angiogenesis and vascular remodeling and the blockade of αvβ3 integrin suppressed angiogenesis in several in vivo models. Therefore, we assessed whether the blockade of αvβ3 affected tyrosine phosphorylation of β3 subunit. […] Cells were also treated with non-immune IgG as control. These cells were washed and further induced with VEGF for 5 min at 37° C. Cell lysates were analyzed for phosphorylation of β3 integrin (Tyr-747 and 759). […] Basal level of β3 integrin tyrosine phosphorylation remains unaffected irrespective of different blocking antibody treatment. To further examine consequences of αvβ3 integrin blocking antibodies, cell lysates were analyzed for tyrosine phosphorylation of VEGFR-2 (Tyr-1175).
Cytoplasmic domains of integrin β subunits are highly conserved and represents region of structural homology between the various groups. […] Cell lysates were analyzed for the phosphorylation of β3 integrin. […]
Cells were lysed in immunoprecipitation lysis buffer (1% Noniodet P-40, 150 mM NaCl, 50 mM Tris-HCL (pH 7.8), 2 mM EDTA, 10 mM NaF, 10 mM Na2P2O7, 2 mM Na3VO4 10 μg/mL leupeptin, 4 μg/mL pepstatin and 0.1 U/mL aprotinin). […] Bands were analyzed by densitomeric analysis using Kodak 1D software and fold changes were indicated.

HUVECs = assay: Cell migration assay of HUVECs on vitronectin, VEGF as agonist (Example 5); type: cell-based, Human; details: vitronectin as substrate
Experimental: (§1) To assess the role of Src-mediated β3 integrin tyrosine phosphorylation in αvβ3 integrin dependent EC migration, HUVECs transfected with various forms of Src were evaluated in migration assays using VEGF as an agonist and vitronectin as a substrate. […] To further evaluate the c-Src mediated β3 integrin cytoplasmic tyrosine motifs phosphorylation in αvβ3 integrin dependent endothelial cell migration, wild type and DiYF mouse lung microvascular endothelial cells were transfected with wild type, dominant negative and catalytically active form of c-Src and stimulated with VEGF (FIG. 23 B).
(§2) Transwell tissue culture inserts were coated with αvβ3 integrin ligand vitronectin for 24 h at 4° C. Endothelial cells were transfected with various forms of c-Src or treated with inhibitors and were trypsinized; then 1×10^5 cells were added into each well. Cells were allowed to migrate for 12 h and fixed with 70% methanol for 15 min and stained with Giemsa. The non-migrated cells adhered to the top surface were removed and three random 10× fields were photographed using an inverted phase contrast microscopy.

[1] = system: angiogenesis in VEGF-A-containing Matrigel; assay: Matrigel plug assay, neovascularization by hemoglobin assay (Example 4); type: in vivo; details: 50 mM peptide in 500 μL Matrigel with VEGF (60 ng/mL) and heparin, subcutaneous, 7 days, C57/Bl6 mice
Experimental: Matrigel plug assays were performed in age- and sex-matched C57/Bl6 background mice. Each animal received an abdominal subcutaneous injection of 500 μL Matrigel mixed with VEGF (60 ng/mL), heparin (60 units/mL) and 50 mM of control ([…] G DTANNPL […]-COOH) (SEQ ID NO: 14) or beta-3 integrin cytoplasmic domain inhibitory peptide ([…] G DTANNPL Yp […]-COOH) (SEQ ID NO: 2). After 7 days, the animals were euthanized and dissected. Matrigel plugs were removed and digested using 5 mL Drabkin reagent and neovascularization was assessed using a hemoglobin assay as per the manufacturer's protocol (FIG. 16).

[2] = system: mouse lung microvascular endothelial cells
Experimental: as §1, §2

[3] = system: mouse lung endothelial cells; details: 20 ng/ml VEGF, 8 h
Experimental: The formation of vascular tube-like structures by wild type and DiYF mouse lung endothelial cells were assessed on the basement membrane matrix preparation. Six well plates were coated with 0.5 ml of Matrigel according to the manufacturer's instructions. Wild type and DiYF mouse lung endothelial cells were detached from the tissue culture flasks using 20 mM EDTA. Cells were washed twice with sterile 1×PBS and seeded on Matrigel coated plate. Medium was supplemented with or without 20 ng/ml VEGF and further incubated at 37° C. for 8 h. The tube formation was observed using an inverted phase contrast microscope (Leica) and photographs were taken from each well. Using ImagePro software, the degree of tube formation was quantified by measuring the length of tubes in random fields.

αvβ3 integrin [4] = assay: WOW-1 binding assay, WT and DiYF mouse lung endothelial cells (FACS); type: cell-based; details: 20 ng/ml VEGF or 1 mM MnCl2
Experimental: Wild type and DiYF mouse lung endothelial cells were serum starved for 4 h and further stimulated with 20 ng/ml VEGF-165, 20 ng/ml b-FGF or 1 mm MnCl2 separately. WoW-1 Fab was added at a final concentration of […], followed by addition of Fluorescein isothiocyanate (FITC) conjugated goat anti-mouse IgG at 10 μg/ml. After 30 min cells were fixed with 3.7% formaldehyde/PBS for 15 min, washed twice with 1×PBS and FACS was performed using a FACS Calibur (Becton Dickinson, San Jose, Calif.) instrument and data were analyzed using CellQuest software program.

αvβ3 integrin [5] = target: T1, αvβ3 integrin (Homo sapiens, UniProt P05106+P06756); assay: WOW-1 binding assay in HUVECs (αvβ3 integrin activation, FACS); type: cell-based; details: 20 ng/mL
T1 construct: Semiconfluent HUVECs were serum starved for 4 h and further stimulated with 20 ng/mL VEGF-A165 or VEGFDΔNΔC; endogenous in cells; host or cells: HUVEC
Experimental: Semiconfluent HUVECs were serum starved for 4 h and further stimulated with 20 ng/mL VEGF-A165 or VEGFDΔNΔC. WOW-1 Fab was added to a final concentration of 30 μg/mL, followed by addition of FITC-conjugated goat anti-mouse IgG at 10 μg/mL. After 30 min cells were fixed with 3.7% formaldehyde in PBS for 15 min, washed twice with PBS, and fluorescence-activated cell sorting (FACS) was performed using a FACS Calibur (Becton Dickinson, San Jose, Calif.) and data were analyzed using CellQuest software.
Semiconfluent HUVECs were transfected with various forms of c-Src or Src++. SYF, SYF+Src cells were serum starved for 4 h and further stimulated with 20 ng/mL VEGF-A165 or b-FGF. WOW-1 Fab was added at a final concentration of 30 μg/mL, followed by addition of FITC-conjugated goat anti-mouse IgG at 10 μg/mL. After 30 min cells were fixed with 3.7% formaldehyde/PBS for 15 min, washed twice with PBS, and FACS analysis was performed as described above.

VEGFR-2 = target: T2, VEGFR-2 (Mus musculus, UniProt P35918); assay: VEGFR-2 phosphorylation time course in WT and DiYF mouse endothelial cells; type: cell-based; details: 20 ng/ml VEGF
T2 construct: Serum starved wild type and DiYF endothelial cells were also treated with 20 ng/ml VEGF for 0-60 mins; endogenous in cells; host or cells: primary mouse lung endothelial cells (WT and DiYF knock-in, C57/Bl6)
Experimental: Serum starved wild type and DiYF endothelial cells were also treated with 20 ng/ml VEGF for 0-60 mins. Cell lysates were analyzed by Western blot using anti-integrin β3 [pY^747], anti-integrin [pY^759], anti-p-VEGFR-2, anti-VEGFR-2, anti-p-ERK1/2, anti-ERK1/2, anti-p-Akt, anti-Akt, anti-p-P38MAPK and anti-MAPK antibody. The wild type and DiYF endothelial cells were lysed and equal proteins from total cell lysates were subjected SDS-PAGS and analyzed by western blot using anti-VEGFR-2 and anti-CD-31 antibody.

αvβ3 integrin [6] = assay: Fibrinogen binding assay, WT and DiYF mouse lung endothelial cells (FACS); type: cell-based; details: 20 ng/ml VEGF or 1 mM MnCl2
Experimental: To assess fibrinogen binding, semiconfluent wild type and DiYF mouse lung endothelial cells were serum starved for 4 h and further induced with 20 ng/ml VEGF-165, 20 ng/ml b-FGF or 1 mm MnCl2. Fluorescein isothiocyanate (FITC)-labeled fibrinogen was added at a final concentration of 200 nM for 45 min. […] Fluorescence-activated cell sorting (FACS) was performed using a FACS Calibur (Becton Dickinson, San Jose, Calif.) and data were analyzed using CellQuest software program.

[7] = system: HUVECs (Human Umbilical vascular endothelial cells); details: HUVECs on Matrigel, 8 h
Text: The tube formation was observed using an inverted phase contrast microscope (Leica) and photographs were taken from each well. Using ImagePro software, the degree of tube formation was quantified by measuring the length of tubes in random fields.

[8] = system: mouse lung endothelial cells; details: WT EC
Experimental: Transwell tissue culture inserts were coated with various integrin ligands for 24 h at 4° C. Both WT and DiYF lung endothelial cells were trypsinized and 1×10^5 cells were added into each well. The lower chamber contained varying concentrations of VEGF-A165 (0-20 ng/ml). Cells were allowed to migrate for 12 h and fixed with 3.7% formaldehyde/PBS for 15 min and stained with 0.5% crystal violet. The non-migrated cells adhered to the top surface were removed and three random 10× fields were photographed using Leica inverted phase contrast microscope.

T2 sequence (P35918 20-1345): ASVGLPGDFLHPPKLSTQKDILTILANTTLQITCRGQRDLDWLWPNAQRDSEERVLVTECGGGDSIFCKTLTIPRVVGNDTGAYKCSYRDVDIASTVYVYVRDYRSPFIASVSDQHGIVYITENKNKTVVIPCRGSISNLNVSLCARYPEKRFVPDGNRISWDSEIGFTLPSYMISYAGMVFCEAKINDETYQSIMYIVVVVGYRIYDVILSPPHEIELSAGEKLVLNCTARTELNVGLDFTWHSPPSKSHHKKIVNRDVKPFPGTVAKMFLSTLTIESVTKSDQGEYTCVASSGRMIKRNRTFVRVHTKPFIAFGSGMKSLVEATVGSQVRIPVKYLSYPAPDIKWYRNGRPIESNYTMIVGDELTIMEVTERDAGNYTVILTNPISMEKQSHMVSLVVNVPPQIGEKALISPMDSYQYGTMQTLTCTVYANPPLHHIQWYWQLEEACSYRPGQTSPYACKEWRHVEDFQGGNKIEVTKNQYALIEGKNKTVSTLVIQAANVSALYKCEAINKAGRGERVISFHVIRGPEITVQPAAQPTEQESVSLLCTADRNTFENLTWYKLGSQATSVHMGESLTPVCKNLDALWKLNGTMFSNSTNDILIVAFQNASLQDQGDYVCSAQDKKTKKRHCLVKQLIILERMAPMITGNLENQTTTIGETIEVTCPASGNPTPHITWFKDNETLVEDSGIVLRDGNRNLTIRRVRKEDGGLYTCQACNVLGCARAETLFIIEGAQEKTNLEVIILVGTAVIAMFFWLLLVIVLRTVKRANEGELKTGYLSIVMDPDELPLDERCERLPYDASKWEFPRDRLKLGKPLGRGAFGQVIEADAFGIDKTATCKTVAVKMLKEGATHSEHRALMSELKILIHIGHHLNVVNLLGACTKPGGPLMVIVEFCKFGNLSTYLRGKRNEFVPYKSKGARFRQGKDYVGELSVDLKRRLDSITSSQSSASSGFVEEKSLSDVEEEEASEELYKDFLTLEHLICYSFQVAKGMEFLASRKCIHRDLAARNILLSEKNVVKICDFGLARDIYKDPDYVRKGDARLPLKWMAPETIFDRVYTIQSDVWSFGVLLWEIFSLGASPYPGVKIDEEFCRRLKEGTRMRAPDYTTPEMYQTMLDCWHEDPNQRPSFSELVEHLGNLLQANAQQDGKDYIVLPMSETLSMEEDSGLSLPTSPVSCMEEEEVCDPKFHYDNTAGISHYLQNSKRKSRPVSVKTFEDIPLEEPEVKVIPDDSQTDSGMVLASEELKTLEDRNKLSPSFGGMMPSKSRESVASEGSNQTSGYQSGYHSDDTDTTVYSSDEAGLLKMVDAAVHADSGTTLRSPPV
T1 sequence (P06756 31-1048): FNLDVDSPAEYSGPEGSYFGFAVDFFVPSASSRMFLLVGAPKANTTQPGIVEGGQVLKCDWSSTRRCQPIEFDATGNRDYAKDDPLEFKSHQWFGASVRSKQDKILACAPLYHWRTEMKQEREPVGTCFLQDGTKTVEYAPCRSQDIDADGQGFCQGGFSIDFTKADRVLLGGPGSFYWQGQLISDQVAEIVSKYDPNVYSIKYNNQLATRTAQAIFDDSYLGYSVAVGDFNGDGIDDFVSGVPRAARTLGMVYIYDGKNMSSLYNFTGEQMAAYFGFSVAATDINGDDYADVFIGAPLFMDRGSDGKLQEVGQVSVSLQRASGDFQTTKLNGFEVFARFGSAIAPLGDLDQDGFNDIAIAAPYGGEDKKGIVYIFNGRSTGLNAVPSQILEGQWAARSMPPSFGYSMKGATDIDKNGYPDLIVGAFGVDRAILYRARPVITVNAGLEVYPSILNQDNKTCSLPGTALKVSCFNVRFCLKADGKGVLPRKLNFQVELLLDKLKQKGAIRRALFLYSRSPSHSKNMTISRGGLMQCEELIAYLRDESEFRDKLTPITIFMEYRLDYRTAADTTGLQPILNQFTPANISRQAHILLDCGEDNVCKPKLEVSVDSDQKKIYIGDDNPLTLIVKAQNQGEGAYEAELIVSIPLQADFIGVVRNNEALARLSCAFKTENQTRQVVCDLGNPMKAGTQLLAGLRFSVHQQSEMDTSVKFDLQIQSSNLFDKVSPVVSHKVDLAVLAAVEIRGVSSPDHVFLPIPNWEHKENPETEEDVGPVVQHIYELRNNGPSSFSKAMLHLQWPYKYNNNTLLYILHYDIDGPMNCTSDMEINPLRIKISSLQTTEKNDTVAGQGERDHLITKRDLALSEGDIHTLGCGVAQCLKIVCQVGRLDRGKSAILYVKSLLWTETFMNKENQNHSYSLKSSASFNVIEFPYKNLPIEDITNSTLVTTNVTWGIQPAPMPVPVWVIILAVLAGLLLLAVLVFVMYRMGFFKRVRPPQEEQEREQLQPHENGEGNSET
T1 sequence (P05106 27-788): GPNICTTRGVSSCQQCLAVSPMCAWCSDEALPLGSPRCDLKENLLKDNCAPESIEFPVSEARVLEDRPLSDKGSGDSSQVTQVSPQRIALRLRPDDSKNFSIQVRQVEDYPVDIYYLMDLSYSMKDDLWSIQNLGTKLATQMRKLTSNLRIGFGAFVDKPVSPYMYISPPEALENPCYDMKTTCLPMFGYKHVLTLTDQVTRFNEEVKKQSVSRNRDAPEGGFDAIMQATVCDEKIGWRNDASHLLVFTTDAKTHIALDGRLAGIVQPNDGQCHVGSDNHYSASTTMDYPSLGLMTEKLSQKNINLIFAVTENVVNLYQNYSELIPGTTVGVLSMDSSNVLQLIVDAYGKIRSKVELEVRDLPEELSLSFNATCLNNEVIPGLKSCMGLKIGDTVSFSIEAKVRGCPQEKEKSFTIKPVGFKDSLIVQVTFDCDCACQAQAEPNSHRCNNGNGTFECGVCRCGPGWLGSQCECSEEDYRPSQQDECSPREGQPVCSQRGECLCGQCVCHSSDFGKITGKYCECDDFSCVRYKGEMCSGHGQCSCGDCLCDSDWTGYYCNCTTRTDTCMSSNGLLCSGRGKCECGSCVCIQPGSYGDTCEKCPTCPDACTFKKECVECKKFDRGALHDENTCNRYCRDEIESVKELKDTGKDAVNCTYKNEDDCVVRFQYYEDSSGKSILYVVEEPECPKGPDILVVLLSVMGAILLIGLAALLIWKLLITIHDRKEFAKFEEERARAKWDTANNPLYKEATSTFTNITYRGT

CC(C)c1cc(/C=C(\C#N)C(=O)NCCCc2ccccc2)cc(C(C)C)c1O [SU1498]
effect on VEGF induced β3 integrin cytoplasmic tyrosine residue phosphorylation (β3 integrin): significantly reduced | effect on EC migration triggered by VEGF (HUVECs): reduced EC migration triggered by VEGF

YGRKKRRQRRR G DTANNPL Yp KEATSTFT-COOH (YGRKKRRQRRRGDTANNPL[pY]KEATSTFT-OH; N-terminus assumed; SMILES CC(C)C[C@H](NC(=O)[C@@H]1CCCN1C(=O)[C@H](CC(N)=O)NC(=O)[C@H](CC(N)=O)NC(=O)[C@H](C)NC(=O)[C@@H](NC(=O)[C@H](CC(=O)O)NC(=O)CNC(=O)[C@H](CCCNC(=N)N)NC(=O)[C@H](CCCNC(=N)N)NC(=O)[C@H](CCCNC(=N)N)NC(=O)[C@H](CCC(N)=O)NC(=O)[C@H](CCCNC(=N)N)NC(=O)[C@H](CCCNC(=N)N)NC(=O)[C@H](CCCCN)NC(=O)[C@H](CCCCN)NC(=O)[C@H](CCCNC(=N)N)NC(=O)CNC(=O)[C@@H](N)Cc1ccc(O)cc1)[C@@H](C)O)C(=O)N[C@@H](Cc1ccc(OP(=O)(O)O)cc1)C(=O)N[C@@H](CCCCN)C(=O)N[C@@H](CCC(=O)O)C(=O)N[C@@H](C)C(=O)N[C@H](C(=O)N[C@@H](CO)C(=O)N[C@H](C(=O)N[C@@H](Cc1ccccc1)C(=O)N[C@H](C(=O)O)[C@@H](C)O)[C@@H](C)O)[C@@H](C)O; listed as Homo sapiens) [SEQ ID NO: 2]
hemoglobin concentration in Matrigel plugs, fold lower compared to control peptide [1]: at least 3.5 fold

VEGF
increase in endothelial cell migration ([2]; CA-Src transfected wild type endothelial cells): 3.5 fold | increase in endothelial cell migration ([2]; WT-Src transfected wild type endothelial cells): 2.5 fold | effect on the length of the tubes ([3]; DiYF EC): little effect | increase in the length of the tubes ([3]; WT EC): about 3 fold | increase in WOW-1 binding (αvβ3 integrin [4]; DiYF EC): 3.5 fold | increase in WOW-1 binding (αvβ3 integrin [4]; WT EC): 9 fold | increase of WOW-1 binding to EC compared to resting cells (αvβ3 integrin [5]): 6 fold | maximum increase in VEGFR-2 phosphorylation over control (VEGFR-2; DiYF EC): 2.5 fold | maximum increase in VEGFR-2 phosphorylation over control (VEGFR-2; WT EC): 6 fold | increase of fibrinogen binding (αvβ3 integrin [6]; DiYF EC): 3 fold | increase of fibrinogen binding (αvβ3 integrin [6]; WT EC): at least 6 fold | endothelial cell tube formation induced [7]: at least 450 μm/mm^2 | increase of migration compared to untreated EC ([8]; VEGF 5 ng/ml): 1.5 fold | increase of migration compared to untreated EC ([8]; VEGF 10 ng/ml): 2.5 fold | increase of migration compared to untreated EC ([8]; VEGF 20 ng/ml): 2.9 fold
